{"source": "patent US20260053767A1", "about": "“Hepatoprotective Compositions And Methods” (Jemyll, Ltd., priority 2022, published 2026)", "key": {"[1]": {"tested_on": "PGC-1α", "test": "PGC-1α protein levels in liver cells (marker for mitochondrial biogenesis)", "type": "cell-based", "conditions": "AML-12 liver cells", "text": "(§1) To that end, the inventors used endothelial cells (EOMA cells) and liver cells (AML-12 cells) in vitro and quantified various markers in response to exposure of the cells to environmental challenge in the presence and absence of DDA at low concentrations. Unless indicated otherwise, the DDA concentration in the in vitro experiments was 5 mcg per microliter. More specifically, the inventors measured p-H2AX protein levels as a marker for DNA damage, PGC-1α protein levels as a marker for mitochondrial biogenesis, NAMPT enzyme levels as a marker for potential for NAD+ production, and total antioxidant capacity as a marker of cellular health. In addition, the inventors also measured global SIRT activity as a gauge of activity for all SIRT enzymes, and in particular SIRT1 enzyme levels as markers for autophagy and various beneficial processes associated with a caloric restricted diet, and SIRT3 levels as markers for mitochondrial function and longevity.\nThe inventors also evaluated activity of DDA on energy metabolism, and particularly on mitochondrial health and/or mitochondrial biogenesis. The protein followed was PGC-1α, a known marker for mitochondrial biogenesis, and exemplary results are depicted in FIG. 7. […] Such finding is not entirely unexpected as PGC-1α is a transcriptional co-activator and as such tightly regulated."}, "[2]": {"conditions": "relatively large oral doses (>20 g); cited from earlier work"}, "[3]": {"tested_on": "human primary hepatocytes", "test": "Nile red staining of lipid droplets", "type": "cell-based", "conditions": "C12 1% with palmitic acid 0.4 mM, vs palmitic acid alone, listed as C12", "experimental": "Nile Red: Cells were cultured for 24 hours in DMEM with 10% FBS. Prior stimulation, cells were incubated in serum free DMEM overnight. […] After the stimulation, cells were stained with Nile Red (100 ng/ml) for 45 minutes. Stained cells were used for immunofluorescence to quantify the deposition of lipid droplets. Nuclear staining was performed with DAPI and images of lipid droplets were taken using confocal microscope Nikon A1 RHD25 and NIS-Elements imaging software was used to analyze images.\nC12 decrease de novo lipogenesis and an increase in fatty acid oxidation in vitro and in vivo: To test the hypothesis that C12 could affect de novo lipogenesis and fatty acid beta-oxidation, human primary hepatocytes were stimulated with palmitic acids (0.4 mM) in the presence or absence of C12 1% (v/w). […] Similar results were also observed in our in vivo experiments. […] Data from in vivo study 1 and 2 were pooled together."}, "[4]": {"tested_on": "endothelial cells (EOMA cells)", "test": "DNA damage in endothelial cells after oxidative insult by H2O2", "type": "cell-based", "conditions": "6 hours, p-value >0.100", "text": "as §1\nIn yet a further series of experiments, the inventors also sought to confirm whether or not DDDA would have a modulatory effect in endothelial cells using the same markers and experimental conditions as noted above.\nFinally, the inventors also evaluated DNA damage in endothelial cells after oxidative insult by H2O2, and exemplary results are shown in FIG. 17. […] N=5-6 plates per treatment."}, "[5]": {"tested_on": "NAMPT", "test": "NAMPT enzyme levels in liver cells", "type": "cell-based", "conditions": "AML-12 liver cells", "text": "as §1\nTo evaluate the effect of DDDA on energy metabolism, and particularly on NAD+ synthesis, the inventors also tested the effect of DDDA on NAMPT in liver cells."}, "[6]": {"tested_on": "rat primary HSCs", "test": "HSCs apoptosis by flow cytometry using propidium iodide staining", "type": "cell-based", "conditions": "1% (w/vol)", "experimental": "A 10% (w/v) FFA-free BSA (Sigma) solution was prepared in ddH2O and maintained at 55° C. in a water bath. 10 mM FFA/1% BSA solution was obtained by complexing the appropriate amount of palmitate stock solution to 10% BSA at 55° C. for another 30 min. The above solution was then cooled to 25° C., filter sterilized and stored at −20° C. until use. Primary hepatocytes were grown in DMEM supplemented with palmitate (0.4 mM). After 24 h. CM was clarified by centrifugation at 6000 g to remove cell debris, sterile filtered with a 0.45 μm pore size membrane filter and stored in aliquots at −20° C. until use.\nHepatic Stellate cells: Primary hepatic stellate cells were isolated from Wistar rats as described previously (7). […] HSCs activation was assessed by flow cytometry by evaluating alpha-smooth muscle Actin (α-SMA) and Collagen type I alpha 1 (COLIA1) protein expression. α-SMA and COLIA1 antibodies were obtained from Thermo Fisher scientific (Waltham, MA). Flow cytometric analysis was conducted with CytoFlex (Beckman Coulter, Brea, CA) and data analyzed with Kaluza software (Beckman Coulter, Brea, CA). […]\nSubsequently, protein expression of two established markers of HSCs activation, namely collagen type 1 (COLA1A) and alpha-smooth muscle actin (αSMA), was determined by flow cytometry analysis. […] Next, the inventors analyzed the effect of DODA on HSCs apoptosis. […]"}, "[7]": {"conditions": "24 hours, pattern relative to 6 hours"}}, "note": "Entries after “also recorded” stand apart in the source; their conditions may differ.", "data": [{"compound": "O=C(O)CCCCCCCCCCC(=O)O", "note": "[DDDA, dodecanedioic acid]", "values": [{"measurement": "PGC-1α levels", "setting": "[1]; 6 hours, p=0.001", "value": "increased PGC1α levels"}, {"measurement": "PGC-1α levels", "setting": "[1]; [7]", "value": "paradoxically reversed"}, {"measurement": "effect on blood glucose in healthy individuals", "setting": "[2]", "value": "no corresponding effects"}, {"measurement": "effect on blood glucose in individuals diagnosed with NIDDM", "setting": "[2]", "value": "hypoglycemic effect"}, {"measurement": "deposition of lipid droplets (Nile red)", "setting": "[3]", "value": "decreased deposition of lipid droplets; also recorded: reduces lipid droplets accumulation"}, {"measurement": "DNA damage", "setting": "[4]", "value": "numerically decreased DNA damage"}, {"measurement": "NAMPT enzyme levels", "setting": "[5]; 6 hours, p=0.001", "value": "significantly increased"}, {"measurement": "NAMPT enzyme levels", "setting": "[5]; [7]", "value": "paradoxically reversed"}, {"measurement": "HSCs apoptosis", "setting": "[6]; CM from palmitate-treated hepatocytes, propidium iodide staining", "value": "induces HSCs apoptosis"}, {"measurement": "cell death (propidium iodide staining, flow cytometry)", "setting": "[6]; rat primary HSCs, CM from steatotic hepatocytes, without compound 8.39%", "value": 16.16, "unit": "%"}]}]}
